Experimental data taken from ChEMBL document CHEMBL5154863, “Design and synthesis of quinolinium-based derivatives targeting FtsZ for antibacterial evaluation and mechanistic study” (Eur J Med Chem, 2022).

Key:
[1] = target: T1, Cell division protein FtsZ (Staphylococcus aureus) (UniProt P0A031); assay: Binding affinity to Staphylococcus aureus FtsZ assessed as equilibrium binding constant by isothermal titration calorimetry
T1 sequence (whole entry): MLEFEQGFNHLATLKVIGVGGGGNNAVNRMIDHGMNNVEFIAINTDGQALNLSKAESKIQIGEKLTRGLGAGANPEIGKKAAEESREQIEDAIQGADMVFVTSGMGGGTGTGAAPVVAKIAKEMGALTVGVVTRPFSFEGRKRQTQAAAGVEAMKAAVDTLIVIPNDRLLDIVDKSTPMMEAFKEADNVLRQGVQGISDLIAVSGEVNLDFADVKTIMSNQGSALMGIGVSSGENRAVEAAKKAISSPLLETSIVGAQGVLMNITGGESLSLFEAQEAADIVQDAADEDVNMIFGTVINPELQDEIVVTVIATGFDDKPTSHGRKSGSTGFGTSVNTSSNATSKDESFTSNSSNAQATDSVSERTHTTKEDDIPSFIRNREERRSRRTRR

Enterococcus faecium [2] = assay: Antibacterial activity against vancomycin resistant Enterococcus faecium ATCC 700221 assessed as inhibition of bacterial growth incubated for 20 to 24 hrs by broth micro dilution method; format: functional; conditions: time 20-24 hrs
Enterococcus faecium [3] = assay: Bactericidal activity against Enterococcus faecium ATCC 700221 assessed as inhibition of bacterial growth incubated for 24 hrs by resazurin dye based microtiter plate assay; format: functional
Klebsiella pneumoniae = assay: Antibacterial activity against NDM-1 expressing Klebsiella pneumoniae ATCC BAA 2470 assessed as inhibition of bacterial growth incubated for 20 to 24 hrs by broth micro dilution method; format: functional; conditions: time 20-24 hrs
Staphylococcus aureus [4] = assay: Antibacterial activity against Staphylococcus aureus ATCC 29213 infected in HK-2 cells assessed as inhibition of bacterial growth incubated for 20 to 24 hrs by broth micro dilution method; format: functional; conditions: time 20-24 hrs
Escherichia coli = assay: Antibacterial activity against Escherichia coli ATCC 25922 assessed as inhibition of bacterial growth incubated for 20 to 24 hrs by broth micro dilution method; format: functional; conditions: time 20-24 hrs
[5] = Ratio of MBC for bactericidal activity against Staphylococcus aureus ATCC 43300 to MIC for antibacterial activity against Staphylococcus aureus ATCC 43300; format: functional
Staphylococcus aureus [6] = assay: Antibacterial activity against Staphylococcus aureus ATCC 29213 assessed reduction in viable bacterial count upto 4 times MIC measured after 8 hrs by time-kill kinetics assay; format: functional
Staphylococcus aureus [7] = assay: Antibacterial activity against methicillin-resistant Staphylococcus aureus ATCC BAA-1720 assessed as inhibition of bacterial growth incubated for 20 to 24 hrs by broth micro dilution method; format: functional; conditions: time 20-24 hrs
[8] = Cytotoxicity against human HK-2 cells incubated for 48 hrs by MTT assay; format: toxicity, cell-based
[9] = target: T1, Cell division protein FtsZ (Staphylococcus aureus); assay: Binding affinity to Staphylococcus aureus FtsZ assessed as decrease in random coil structure at 8 ug/ml incubated for 30 mins by circular dichroism method (reference value: 34.5 %); parameters: scale not given: the % may be the effect or the level left; conditions: dose 8.0 µg/ml
Bacillus subtilis = assay: Induction of morphological changes in Bacillus subtilis CMCC (B) 63501 assessed as elongation of bacterial cell at 0.5 times MIC for 4 hrs (reference value: 3 to 5 um) by microscopic analysis; format: functional
Staphylococcus aureus [10] = assay: Antibacterial activity against Staphylococcus aureus ATCC 29213 infected in L929 cells assessed as inhibition of bacterial growth incubated for 20 to 24 hrs by broth micro dilution method; format: functional; conditions: time 20-24 hrs

With `CC1CCN(c2cc(/C=C/c3ccc(N(C)C)cc3)[n+](C)c3ccccc23)CC1.[I-]` the Kb [1] was 4.41 10^5/M, the MIC (Enterococcus faecium [2]) was 1 mg/L and the MBC (Enterococcus faecium [3]) was 4 mg/L. The MIC (Klebsiella pneumoniae) was > 64 mg/L, the MIC (Staphylococcus aureus [4]) was 1 mg/L and the MIC (Escherichia coli) was 8 mg/L. The Ratio [5] was >4, the Activity (Staphylococcus aureus [6]) was 1000 CFU/ml and the MIC (Staphylococcus aureus [7]) was 1 mg/L. It also gave an IC50 at 48 h [8] of 9.42 mg/L, an Activity [9] of 28.4% and an Activity (Bacillus subtilis) of 70 um. It also gave an MIC (Staphylococcus aureus [10]) of 1 mg/L.
